PubChem BioAssay (NCI)
Where “and” joins values, the source holds several entries; their conditions need not be identical. Equal entries are not always repeated.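 A five-concentration, 48-hour dose response in 96-well plates underlies each endpoint, interpolated linearly between surrounding concentrations. The concentration for 50% growth inhibition is given as GI50. TGI: concentration producing complete growth inhibition.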

Experiments:
Assay in all cases: DTP human tumour cell line panel, 48 h; in the data active = GI50 below about 0.43 µM; inactive = the rest
U251 CNS = system: U251 CNS
OVCAR-4 ovarian = system: OVCAR-4 ovarian
DU-145 prostate = system: DU-145 prostate
SK-MEL-5 melanoma = system: SK-MEL-5 melanoma
RPMI-8226 leukemia = system: RPMI-8226 leukemia
COLO 205 colon = system: COLO 205 colon
KM12 colon = system: KM12 colon
EKVX NSCLC = system: EKVX NSCLC
OVCAR-8 ovarian = system: OVCAR-8 ovarian
HOP-62 NSCLC = system: HOP-62 NSCLC
T-47D breast = system: T-47D breast
K-562 leukemia = system: K-562 leukemia
NCI-H460 lung = system: NCI-H460 lung
NCI-H522 lung = system: NCI-H522 lung
786-0 renal = system: 786-0 renal
MDA-MB-231 breast = system: MDA-MB-231 breast
SK-OV-3 ovarian = system: SK-OV-3 ovarian
HCC-2998 colon = system: HCC-2998 colon
SF-539 CNS = system: SF-539 CNS
SW-620 colon = system: SW-620 colon
SN12C renal = system: SN12C renal
IGROV1 ovarian = system: IGROV1 ovarian
LOX IMVI melanoma = system: LOX IMVI melanoma
SR leukemia = system: SR leukemia
UACC-62 melanoma = system: UACC-62 melanoma
HCT-15 colon = system: HCT-15 colon
MCF7 breast = system: MCF7 breast
MOLT-4 leukemia = system: MOLT-4 leukemia
TK-10 renal = system: TK-10 renal
PC-3 prostate = system: PC-3 prostate
ACHN renal = system: ACHN renal
SF-268 CNS = system: SF-268 CNS
A549 NSCLC = system: A549 NSCLC
HT29 colon = system: HT29 colon
OVCAR-3 ovarian = system: OVCAR-3 ovarian
MDA-N = system: MDA-N
SK-MEL-28 melanoma = system: SK-MEL-28 melanoma
NCI/ADR-RES ovarian = system: NCI/ADR-RES ovarian
SNB-75 CNS = system: SNB-75 CNS
SNB-19 CNS = system: SNB-19 CNS
BT-549 breast = system: BT-549 breast
OVCAR-5 ovarian = system: OVCAR-5 ovarian
UACC-257 melanoma = system: UACC-257 melanoma
NCI-H23 lung = system: NCI-H23 lung
HS 578T breast = system: HS 578T breast
MDA-MB-435 = system: MDA-MB-435
MALME-3M melanoma = system: MALME-3M melanoma
HCT-116 colon = system: HCT-116 colon
UO-31 renal = system: UO-31 renal
M14 melanoma = system: M14 melanoma
SK-MEL-2 melanoma = system: SK-MEL-2 melanoma
HOP-92 NSCLC = system: HOP-92 NSCLC
CCRF-CEM leukemia = system: CCRF-CEM leukemia
RXF 393 renal = system: RXF 393 renal
NCI-H226 lung = system: NCI-H226 lung
SF-295 CNS = system: SF-295 CNS
HL-60(TB) leukemia = system: HL-60(TB) leukemia
CAKI-1 renal = system: CAKI-1 renal
A498 renal = system: A498 renal

Cc1c2c(n(CCc3ccccc3)c1C)NN=C(C#N)S2(=O)=O
> 100 µM: TGI (U251 CNS) | TGI (OVCAR-4 ovarian) | TGI (DU-145 prostate) | TGI (SK-MEL-5 melanoma) | TGI (RPMI-8226 leukemia) | TGI (COLO 205 colon) | TGI (KM12 colon) | TGI (EKVX NSCLC) | TGI (OVCAR-8 ovarian) | TGI (HOP-62 NSCLC) | TGI (T-47D breast) | TGI (K-562 leukemia) | TGI (NCI-H460 lung) | TGI (NCI-H522 lung) | TGI (786-0 renal) | TGI (MDA-MB-231 breast) | TGI (SK-OV-3 ovarian) | TGI (HCC-2998 colon) | TGI (SF-539 CNS) | TGI (SW-620 colon) | TGI (SN12C renal) | TGI (IGROV1 ovarian) | TGI (LOX IMVI melanoma) | TGI (SR leukemia) | TGI (UACC-62 melanoma) | TGI (HCT-15 colon) | TGI (MCF7 breast) | TGI (MOLT-4 leukemia) | TGI (TK-10 renal) | TGI (PC-3 prostate) | TGI (ACHN renal) | TGI (SF-268 CNS) | TGI (A549 NSCLC) | TGI (HT29 colon) | TGI (OVCAR-3 ovarian) | TGI (MDA-N) | TGI (SK-MEL-28 melanoma) | TGI (NCI/ADR-RES ovarian) | TGI (SNB-75 CNS) | TGI (SNB-19 CNS) | TGI (BT-549 breast) | TGI (OVCAR-5 ovarian) | TGI (UACC-257 melanoma) | TGI (NCI-H23 lung) | TGI (HS 578T breast) | TGI (MDA-MB-435) | TGI (MALME-3M melanoma) | TGI (HCT-116 colon) | TGI (UO-31 renal) | TGI (M14 melanoma) | TGI (SK-MEL-2 melanoma)

CC1(O)/C(=N/O)CC2CC1C2(C)C (centres undefined)
> 100 µM: TGI (U251 CNS) | TGI (OVCAR-4 ovarian) | TGI (DU-145 prostate) | TGI (SK-MEL-5 melanoma) | TGI (RPMI-8226 leukemia) | TGI (COLO 205 colon) | TGI (KM12 colon) | TGI (OVCAR-8 ovarian) | TGI (T-47D breast) | TGI (K-562 leukemia) | TGI (NCI-H460 lung) | TGI (NCI-H522 lung) | TGI (786-0 renal) | TGI (MDA-MB-231 breast) | TGI (HCC-2998 colon) | TGI (SW-620 colon) | TGI (SN12C renal) | TGI (IGROV1 ovarian) | TGI (HOP-92 NSCLC) | TGI (LOX IMVI melanoma) | TGI (CCRF-CEM leukemia) | TGI (UACC-62 melanoma) | TGI (HCT-15 colon) | TGI (MCF7 breast) | TGI (RXF 393 renal) | TGI (NCI-H226 lung) | TGI (MOLT-4 leukemia) | TGI (TK-10 renal) | TGI (ACHN renal) | TGI (SF-268 CNS) | TGI (SF-295 CNS) | TGI (A549 NSCLC) | TGI (HT29 colon) | TGI (OVCAR-3 ovarian) | TGI (MDA-N) | TGI (SK-MEL-28 melanoma) | TGI (SNB-75 CNS) | TGI (SNB-19 CNS) | TGI (HL-60(TB) leukemia) | TGI (BT-549 breast) | TGI (OVCAR-5 ovarian) | TGI (UACC-257 melanoma) | TGI (NCI-H23 lung) | TGI (HS 578T breast) | TGI (MDA-MB-435) | TGI (MALME-3M melanoma) | TGI (UO-31 renal) | TGI (M14 melanoma) | TGI (SK-MEL-2 melanoma)

O=S(=O)(O)c1c(N=Nc2c(O)ccc3ccccc23)ccc2ccccc12
> 100 µM: TGI (U251 CNS) | TGI (OVCAR-4 ovarian) | TGI (DU-145 prostate) | TGI (SK-MEL-5 melanoma) | TGI (RPMI-8226 leukemia) | TGI (COLO 205 colon) | TGI (KM12 colon) | TGI (EKVX NSCLC) | TGI (OVCAR-8 ovarian) | TGI (HOP-62 NSCLC) | TGI (T-47D breast) | TGI (K-562 leukemia) | TGI (NCI-H522 lung) | TGI (786-0 renal) | TGI (MDA-MB-231 breast) | TGI (SK-OV-3 ovarian) | TGI (SW-620 colon) | TGI (SN12C renal) | TGI (IGROV1 ovarian) | TGI (HOP-92 NSCLC) | TGI (CAKI-1 renal) | TGI (LOX IMVI melanoma) | TGI (SR leukemia) | TGI (CCRF-CEM leukemia) | TGI (UACC-62 melanoma) | TGI (HCT-15 colon) | TGI (RXF 393 renal) | TGI (NCI-H226 lung) | TGI (MOLT-4 leukemia) | TGI (TK-10 renal) | TGI (PC-3 prostate) | TGI (SF-268 CNS) | TGI (SF-295 CNS) | TGI (A498 renal) | TGI (A549 NSCLC) | TGI (HT29 colon) | TGI (OVCAR-3 ovarian) | TGI (MDA-N) | TGI (SK-MEL-28 melanoma) | TGI (NCI/ADR-RES ovarian) | TGI (SNB-75 CNS) | TGI (SNB-19 CNS) | TGI (BT-549 breast) | TGI (OVCAR-5 ovarian) | TGI (UACC-257 melanoma) | TGI (NCI-H23 lung) | TGI (HS 578T breast) | TGI (MDA-MB-435) | TGI (MALME-3M melanoma) | TGI (HCT-116 colon) | TGI (UO-31 renal) | TGI (M14 melanoma) | TGI (SK-MEL-2 melanoma)

CC(=O)OC1COC(n2c(N)c(C#N)c(C)c(C#N)c2=S)C(OC(C)=O)C1OC(C)=O (centres undefined)
> 100 µM: TGI (DU-145 prostate) | TGI (SK-MEL-5 melanoma) | TGI (RPMI-8226 leukemia) | TGI (KM12 colon) | TGI (OVCAR-8 ovarian) | TGI (HOP-62 NSCLC) | TGI (T-47D breast) | TGI (K-562 leukemia) | TGI (NCI-H460 lung) | TGI (NCI-H522 lung) | TGI (786-0 renal) | TGI (MDA-MB-231 breast) | TGI (SK-OV-3 ovarian) | TGI (HCC-2998 colon) | TGI (SF-539 CNS) | TGI (SW-620 colon) | TGI (SN12C renal) | TGI (IGROV1 ovarian) | TGI (CAKI-1 renal) | TGI (LOX IMVI melanoma) | TGI (SR leukemia) | TGI (CCRF-CEM leukemia) | TGI (UACC-62 melanoma) | TGI (HCT-15 colon) | TGI (MCF7 breast) | TGI (RXF 393 renal) | TGI (NCI-H226 lung) | TGI (MOLT-4 leukemia) | TGI (TK-10 renal) | TGI (PC-3 prostate) | TGI (ACHN renal) | TGI (SF-268 CNS) | TGI (SF-295 CNS) | TGI (A498 renal) | TGI (A549 NSCLC) | TGI (HT29 colon) | TGI (OVCAR-3 ovarian) | TGI (MDA-N) | TGI (SK-MEL-28 melanoma) | TGI (NCI/ADR-RES ovarian) | TGI (SNB-75 CNS) | TGI (SNB-19 CNS) | TGI (HL-60(TB) leukemia) | TGI (BT-549 breast) | TGI (OVCAR-5 ovarian) | TGI (UACC-257 melanoma) | TGI (NCI-H23 lung) | TGI (HS 578T breast) | TGI (MDA-MB-435) | TGI (MALME-3M melanoma) | TGI (UO-31 renal) | TGI (M14 melanoma) | TGI (SK-MEL-2 melanoma)
inactive: GI50 (DU-145 prostate) > 100 µM | GI50 (CCRF-CEM leukemia) > 100 µM and 32 µM | GI50 (RXF 393 renal) 17.4 µM and 59.8 µM | GI50 (MOLT-4 leukemia) > 100 µM and 43.2 µM | GI50 (SNB-19 CNS) > 100 µM | GI50 (HL-60(TB) leukemia) > 100 µM and 36.6 µM | GI50 (HS 578T breast) > 100 µM and 38.3 µM | GI50 (SK-MEL-2 melanoma) > 100 µM and 26 µM
